Reference: PubChem BioAssay (NCI)
Where “and” joins values, the source holds several entries; their conditions need not be identical. Equal entries are not always repeated.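 Five concentrations, 48 hours, 96-well plates. Abbreviation: GI50, concentration required for 50% inhibition of growth. At the TGI there is no net growth.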

Columns and labels:
Assay in all cases: growth of human tumour cells (NCI), 48 h
KM12 colon = tested on: KM12 colon
SK-OV-3 ovarian = tested on: SK-OV-3 ovarian
HL-60(TB) leukemia = tested on: HL-60(TB) leukemia
BT-549 breast = tested on: BT-549 breast
SNB-19 CNS = tested on: SNB-19 CNS
HCT-116 colon = tested on: HCT-116 colon
NCI/ADR-RES ovarian = tested on: NCI/ADR-RES ovarian
OVCAR-5 ovarian = tested on: OVCAR-5 ovarian
UO-31 renal = tested on: UO-31 renal
OVCAR-3 ovarian = tested on: OVCAR-3 ovarian

Row | Compound | GI50 (KM12 colon) | TGI (KM12 colon) | GI50 (SK-OV-3 ovarian) | TGI (SK-OV-3 ovarian) | GI50 (HL-60(TB) leukemia) | TGI (HL-60(TB) leukemia) | GI50 (BT-549 breast) | TGI (BT-549 breast) | GI50 (SNB-19 CNS) | TGI (SNB-19 CNS) | GI50 (HCT-116 colon) | TGI (HCT-116 colon) | GI50 (NCI/ADR-RES ovarian) | GI50 (OVCAR-5 ovarian) | TGI (OVCAR-5 ovarian) | GI50 (UO-31 renal) | TGI (UO-31 renal) | GI50 (OVCAR-3 ovarian) | TGI (OVCAR-3 ovarian) | TGI (NCI/ADR-RES ovarian)
1 | COc1cc(N2CCC(N3CCN(C)CC3)CC2)ccc1Nc1ncc(Cl)c(Nc2ccccc2P(C)(C)=O)n1 | 2.69 µM | > 100 µM | 0.992 µM | 5 µM | 1.67 µM | > 35.6 µM | 3.07 µM | 13.5 µM | 3.09 µM | > 100 µM | 1.09 µM | 13.3 µM | 3 µM | 0.379 µM | > 100 µM | 0.734 µM | 2.7 µM | 2.15 µM | 38.2 µM | 
2 | Nc1ccccc1NC(=O)c1ccc(CSc2nc(N3CCOCC3)c3cccn3n2)cc1 | 1.14 µM | > 100 µM | 0.79 µM | 6.43 µM | 0.273 µM | 0.961 µM | 1.14 µM | 4.59 µM | 2.67 µM | > 100 µM | 0.379 µM | > 100 µM | 0.445 µM | 0.985 µM | > 100 µM | 0.412 µM | 3.61 µM | 1.05 µM | 6.73 µM | > 100 µM
3 | COc1ccc(-c2cc(-c3ccc(Nc4nc(Nc5ccc(Cl)cc5)nc(Nc5ccc(Cl)cc5)n4)cc3)no2)cc1 | 7.83 µM | 30.3 µM | 25.8 µM | 79.4 µM | 1.87 µM | 12.1 µM | 17.2 µM | 72 µM | 27.4 µM | > 100 µM | 4.33 µM | 17.1 µM | 16.3 µM | 19.1 µM | 73.5 µM | 5.36 µM | 35.2 µM | 11.2 µM | 38.9 µM | 53.9 µM
4 | NC1=NC(=O)N2CC12 (stereo unspecified) | 436 µM | > 100 µM and 1070 µM | 369 µM | > 100 µM and 991 µM | 13.7 µM |  | 47.9 µM and 62.6 µM | 166 µM | 516 µM | > 100 µM and 1120 µM | 73.9 µM | 166 µM | 168 µM | 170 µM | 528 µM | 163 µM | > 100 µM and 605 µM | 171 µM | > 100 µM and 519 µM | 660 µM
5 | N=c1ccn2c(n1)OC1C(OP(=O)(O)O)C(CO)OC12 (stereo unspecified) |  | > 100 µM |  | > 100 µM |  | 13.6 µM |  | > 100 µM |  | > 100 µM |  | > 100 µM |  |  | > 100 µM |  | > 100 µM |  | > 100 µM | > 100 µM
6 | O=c1ncc(-c2ccc(C(F)(F)F)cc2)c(NC2CCCCCC2)[nH]1 | 19.9 µM | 44.3 µM | 27.3 µM | 64.3 µM | 21 µM | 46.4 µM | 19.5 µM | 39 µM | 24.2 µM | 80.8 µM | 16.8 µM | 33.6 µM | 25.2 µM | 22.9 µM | 48.3 µM | 14.2 µM | 38.9 µM | 17.2 µM | 34.6 µM | 68.2 µM
7 | CCCCCCCCCCCCCOC(=O)c1c(C)[nH]c(/C=C2\N=C(c3ccc[nH]3)C=C2OC)c1C | < 0.0167 µM | > 100 µM | 2.8 µM | 37.1 µM | 0.0182 µM |  | 0.237 µM | 36.7 µM | 5.37 µM | > 87.6 µM | < 0.0122 µM |  | 0.116 µM | 0.0929 µM | > 100 µM | 0.103 µM | 0.443 µM | 0.227 µM | 15.5 µM | > 100 µM
8 | NCCCNc1ccc2c(c1)[n+]([O-])c1ccccc1[n+]2[O-] |  | 80.3 µM |  | 50.4 µM |  | 57.6 µM |  | 64 µM |  | > 100 µM |  | 63.7 µM |  |  | > 100 µM |  | > 100 µM |  | 50.5 µM | > 100 µM
9 | CCc1ccc(C2=C/C(=C/c3ccc(Cl)cc3)C(=O)N2CCc2ccc(S(N)(=O)=O)cc2)cc1 | 3.02 µM | 10.1 µM | 3.11 µM | 9.15 µM | 2.12 µM | 5.35 µM | 1.79 µM | 3.42 µM | 2.98 µM | 13.7 µM | 1.74 µM | 3.23 µM | 4.6 µM | 2.18 µM | 5.7 µM | 1.55 µM | 4.53 µM | 2.12 µM | 4.6 µM | 41.4 µM
10 | O=C(O)C(=O)Cc1ccc2c(c1)OCO2 |  | > 100 µM |  | > 100 µM |  | > 100 µM |  | > 100 µM |  | > 100 µM |  | > 100 µM |  |  | > 100 µM |  | > 100 µM |  | > 100 µM | > 100 µM
11 | Cc1cc(Cl)ccc1Nc1sc(C(=O)c2cc3cc(Cl)ccc3o2)c(N)c1C#N |  | > 100 µM |  | 57 µM |  | > 100 µM |  | > 100 µM |  | 25.1 µM |  | > 100 µM |  |  | > 100 µM |  | > 100 µM |  | > 55.3 µM | > 23.5 µM
12 | O=C1C=C(Nc2ccccc2)c2ncccc2C1=O | 0.669 µM | 2.11 µM | 1.75 µM | 3.16 µM | 0.842 µM | 3.84 µM | 1.28 µM | 2.64 µM | 0.411 µM | 1.43 µM | 0.291 µM | 0.883 µM | 0.33 µM | 1.74 µM | 3.4 µM | 0.333 µM | 1.32 µM | 0.28 µM | 0.825 µM | 1.88 µM
13 | O=c1[nH]cnc2c(C3OC(CO)C(O)C3O)[nH]nc12 (stereo unspecified) |  | > 100 µM |  | 28.3 µM |  | > 100 µM |  | > 100 µM |  | > 100 µM |  | > 100 µM |  |  | > 100 µM |  | > 100 µM |  | 53.5 µM | > 100 µM
14 | CS(=O)(=O)CCNCc1ccc(-c2ccc3ncnc(Nc4ccc(OCc5ccccc5)c(C(F)(F)F)c4)c3c2)o1 | 5.48 µM | 11.3 µM | 7.19 µM | > 22.1 µM | 5.65 µM | 13.3 µM | 8.99 µM | > 25 µM | 4.79 µM | 9.37 µM | 4.27 µM | 7.88 µM | 7.03 µM | 4.87 µM | 12.5 µM | 5.25 µM | 17.2 µM | 7.37 µM | 19.2 µM | > 25 µM
